Experimental data from patent US20030144345A1, “Treatment of metabolic diseases with soraphen derivatives” (priority 2001, published 2003).

Legend:
human ACCβ enzyme = molecular target: T1, human ACCβ enzyme (Homo sapiens, UniProt O00763); test: Human ACCβ enzyme activity / inhibition assay (radiometric); format: biochemical; details: for Effect on K0.5 of K-citrate / Effect on Vmax of the ACC enzyme reaction: titration of compound at 0.5, 1 and 2 times IC50
T1 construct: The cloning of the full length human muscle-type ACCβ cDNA and expression in HEK293 cells; made in house; host or cells: HEK293 cells (ATCC CRL-1573), plasmid pRF33D
T1 sequence (O00763 whole entry): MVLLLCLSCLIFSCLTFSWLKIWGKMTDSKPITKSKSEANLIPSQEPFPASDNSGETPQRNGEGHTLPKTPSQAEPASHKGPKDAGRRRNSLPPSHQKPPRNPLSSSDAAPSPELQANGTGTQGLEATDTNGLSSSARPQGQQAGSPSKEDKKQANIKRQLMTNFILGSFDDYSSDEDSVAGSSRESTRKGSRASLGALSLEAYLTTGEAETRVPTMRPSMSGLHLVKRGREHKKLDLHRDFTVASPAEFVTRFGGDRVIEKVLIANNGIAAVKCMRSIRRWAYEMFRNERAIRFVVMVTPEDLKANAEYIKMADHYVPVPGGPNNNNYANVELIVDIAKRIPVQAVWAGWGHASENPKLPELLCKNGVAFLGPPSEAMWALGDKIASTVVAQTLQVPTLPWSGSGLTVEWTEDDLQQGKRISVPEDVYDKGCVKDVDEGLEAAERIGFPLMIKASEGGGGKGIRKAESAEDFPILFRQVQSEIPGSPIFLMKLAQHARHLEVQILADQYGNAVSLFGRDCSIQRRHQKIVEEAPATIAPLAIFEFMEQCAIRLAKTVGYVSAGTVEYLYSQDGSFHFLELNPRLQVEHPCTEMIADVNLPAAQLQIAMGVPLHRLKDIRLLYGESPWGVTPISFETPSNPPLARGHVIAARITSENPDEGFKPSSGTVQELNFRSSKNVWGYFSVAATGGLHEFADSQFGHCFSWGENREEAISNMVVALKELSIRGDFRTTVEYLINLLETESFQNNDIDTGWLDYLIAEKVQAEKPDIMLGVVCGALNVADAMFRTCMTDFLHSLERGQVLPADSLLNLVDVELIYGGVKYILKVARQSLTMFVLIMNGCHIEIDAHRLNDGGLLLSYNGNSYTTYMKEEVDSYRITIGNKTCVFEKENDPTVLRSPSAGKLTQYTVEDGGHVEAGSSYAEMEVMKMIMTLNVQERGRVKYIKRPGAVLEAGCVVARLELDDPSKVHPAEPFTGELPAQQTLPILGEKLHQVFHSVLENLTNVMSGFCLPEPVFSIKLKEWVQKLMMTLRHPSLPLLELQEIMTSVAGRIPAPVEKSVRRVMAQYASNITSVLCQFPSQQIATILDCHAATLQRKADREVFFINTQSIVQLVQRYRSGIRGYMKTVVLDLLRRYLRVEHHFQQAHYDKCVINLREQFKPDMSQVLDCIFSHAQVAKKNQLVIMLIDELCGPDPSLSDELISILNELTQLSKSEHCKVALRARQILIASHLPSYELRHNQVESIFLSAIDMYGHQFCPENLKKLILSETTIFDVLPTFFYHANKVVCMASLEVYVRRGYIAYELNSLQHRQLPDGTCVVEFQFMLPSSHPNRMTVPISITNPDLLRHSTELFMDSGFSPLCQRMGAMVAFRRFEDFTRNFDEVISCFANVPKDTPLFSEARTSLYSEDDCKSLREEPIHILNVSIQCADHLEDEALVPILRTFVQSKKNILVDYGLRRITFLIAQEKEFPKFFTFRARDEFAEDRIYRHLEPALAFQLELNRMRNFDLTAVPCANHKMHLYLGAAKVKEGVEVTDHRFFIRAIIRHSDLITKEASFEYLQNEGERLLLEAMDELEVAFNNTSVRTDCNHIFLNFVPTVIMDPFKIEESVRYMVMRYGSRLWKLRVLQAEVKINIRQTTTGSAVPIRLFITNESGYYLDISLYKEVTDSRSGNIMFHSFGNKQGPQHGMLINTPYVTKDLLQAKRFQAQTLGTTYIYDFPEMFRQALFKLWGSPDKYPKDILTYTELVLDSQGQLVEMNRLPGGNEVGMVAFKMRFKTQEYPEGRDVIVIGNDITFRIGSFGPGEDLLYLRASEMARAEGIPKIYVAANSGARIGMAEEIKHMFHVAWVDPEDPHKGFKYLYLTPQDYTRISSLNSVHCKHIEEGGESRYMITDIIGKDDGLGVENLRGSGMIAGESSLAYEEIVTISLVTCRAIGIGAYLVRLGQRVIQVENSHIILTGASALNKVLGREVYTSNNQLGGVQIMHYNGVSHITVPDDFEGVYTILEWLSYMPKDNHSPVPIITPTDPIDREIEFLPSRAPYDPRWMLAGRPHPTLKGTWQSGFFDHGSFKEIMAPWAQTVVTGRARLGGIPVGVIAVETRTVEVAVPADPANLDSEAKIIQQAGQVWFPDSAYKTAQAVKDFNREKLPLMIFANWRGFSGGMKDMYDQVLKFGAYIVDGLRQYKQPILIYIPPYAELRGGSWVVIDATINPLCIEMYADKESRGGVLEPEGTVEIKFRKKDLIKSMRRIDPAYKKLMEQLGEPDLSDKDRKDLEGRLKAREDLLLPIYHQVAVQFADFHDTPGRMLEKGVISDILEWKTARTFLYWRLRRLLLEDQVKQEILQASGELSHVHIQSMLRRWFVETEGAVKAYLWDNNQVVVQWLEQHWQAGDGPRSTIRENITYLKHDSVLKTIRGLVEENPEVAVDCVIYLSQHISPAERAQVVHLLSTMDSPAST
Method: The cloning of the full length human muscle-type ACCβ cDNA and expression in HEK293 cells (ATCC, #CRL-1573) was performed as follows. The ACCβ cDNA was amplified by the polymerase chain reaction (PCR) and was cloned using standard recombinant DNA techniques. The PCR reaction was performed with the Expand Long Template PCR System (Roche Molecular Biochemicals, #1 681 8340) and 0.5 ng of cDNA from human skeletal muscle as template. The primers used for PCR amplification were designed on the basis of the published sequence of the human ACCβ cDNA isolated from a human liver cDNA library (Abul-Elheiga et al. J. Biol Chem. 272, 10669-10677, 1997). The sequence of the forward primer ACCB1 was 5′-[…]-3′; it includes a NheI restriction cleavage site for subcloning and a Kozak translation initiation consensus sequence preceding the ATG start codon. The sequence of the reverse primer ACCB8 was 5′-[…]-3′; it includes a stop codon and a XhoI restriction cleavage site for subcloning. The amplified DNA fragment of approximately 7.4 kb was cloned into a mammalian expression vector. The resulting plasmid isolates, pRF33A, B, C, D, and E were individually transfected in human embryonic kidney 293 cells (HEK293) using a standard lipid transfection method. Cell extracts of transfected cells were prepared in a lysis buffer containing 0.4 mg/ml digitonin and enzyme activity was determined using a radiometric ACC activity assay as described below. Plasmid pRF33D gave the highest activity and was chosen for large scale transfections of HEK293 cells and enzyme purification.
Since ACC enzyme activities in crude cell lysates were very low, enrichment of ACCβ enzyme expressed in HEK293 cells was achieved by a single anion exchange chromatography step. Cell lysates were run over a 5 ml Econo Pac High Q column (Bio-Rad, #732-0027). Bound proteins were eluted by a gradient of NaCl from 0 to 1 M in 50 mM Tris-HCl, pH 7.5, 1 mM DTT, 5% glycerol. Fractions containing high ACCβ enzyme activity were pooled and stored at −20° C.
Standard ACCβ enzyme assays, in a total volume of 100 μl, contained 50 mM HEPES-KOH, pH 7.5, 10 mM K-citrate, 10 mM MgSO4, 1 mM ATP, 0.1 mM DTT, 2% DMSO, 0.1 mg/ml fatty acid-free BSA, 0.2 mM acetyl-CoA, 2 mM KHCO3, 0.2 mM [^14C]NaHCO3 (50-60 mCi/mmol) and cell lysate or purified ACCβ enzyme. Reactions were incubated at 37° C. for 45 min. and stopped by the addition of 50 μl of 2 N HCl. Terminated reactions were incubated at 50° C. over night to evaporate non-incorporated [^14C]NaHCO3. [^14C]-labeled malonyl-CoA reaction product was quantitated by liquid scintillation counting after the addition of 20 μl of Microscint 20 (Canberra Packard, #6013621) on a TopCount NXT microplate scintillation counter (Canberra Packard).
Inhibition of ACCβ activity was determined at saturating substrate concentrations with two-fold serial dilutions of test compounds spanning a concentration range of at least two log units. IC50 values were calculated with the GraFit software (Erithacus Software Ltd.). Kinetic parameters (Km, Vmax and K0.5) were determined by varying one substrate (or allosteric effector) in a two-fold serial dilution over a concentration range of at least two log units while keeping all other substrates at constant saturating concentrations. Fitting to the Michaelis-Menten equation (for calculation of Km of substrates) and fitting to the Hill equation (for calculation of K0.5of the allosteric activator K-citrate) was done with the GraFit software. To determine the mode of action of Soraphens, determinations of Km for ATP and acetyl-CoA and of K0.5 for K-citrate were repeated in the absence and in the presence of the three different Soraphens at 0.5, 1 and 2 times their IC50 and the data were fitted to the equation for non-competitive inhibition with the GraFit software.

HepG2 cells = test: Fatty acid (palmitate) oxidation assay with human liver hepatoma cells HepG2; format: cell-based; details: HepG2, 10 μM
Method: For routine passaging, HepG2 cells (American Type Culture Collection, ATCC) were grown in T75 flasks (Falcon, #353136) in 15 ml of Dulbecco's modified Eagle medium (DMEM, Sigma, #D5796), containing 10% heat inactivated fetal bovine serum (FBS, Summit Biotechnology, #S-100-05) and 1% Penicillin/Streptomycin (Sigma, #P4333). […] The cells were passaged once per week by trypsinization and an additional change of medium was done after 3 to 4 days after passaging.

Wistar rats = test: In vivo oxidation of [U-14C]palmitate (exhaled 14CO2); set-up: species or system rat; details: 30 mg/kg s.c.
Method: Compound (Ia) was tested in normal Wistar rats by two different methods to assess in vivo a) direct effects on fatty acid oxidation by following the conversion of [^14C]-labeled palmitate to ^14CO2 exhaled by the animals and b) effects on total lipid utilization as determined by indirect calorimetry.
a) In vivo oxidation of [U-^14C]palmitate. Male Wistar rats (240-360 g) were given chow food ad libitum. The day before the experiment each animal was singly caged and food was withdrawn 2.5 hours before the experiment. The animals were given [U-^14C]palmitate (5 μCi) dissolved in 500 μl of olive oil by gavage and compound (Ia) (30 mg/kg) or saline (vehicle) by subcutaneous injection. Immediately after receiving [U-^14C]palmitate and compound (Ia) or vehicle, the animals were kept singly in a metabolic chamber during six hours. The chamber was set up to allow quantive recovery of ^14CO2 exhaled by the animals. The chamber consisted of a desiccator with an elevated platform for the rat, an inlet for air at the bottom wall of the vessel. The flow of the air-exchange was controlled by a flow meter connected to a vacuum pump and set to 50 litres/hour. The temperature inside the chamber was kept at 22° C. Exhaled ^14CO2 from the animals was absorbed by a flask containing 500 ml of Carbosorb E (Canberra Packard).

CO[C@H]1CCCC[C@@H](c2ccccc2)OC(=O)[C@@H](C)C2(O)O[C@H]([C@@H](C)[C@H](O)[C@H]2OC)[C@@H](C)/C=C/[C@H]1OC [Cpd (Ia), Soraphen A 1-α]
IC50 (human ACCβ enzyme): 3 nM | Effect on K0.5 of K-citrate (human ACCβ enzyme): did not change | Effect on Vmax of the ACC enzyme reaction (human ACCβ enzyme): dose-dependent decrease | Effect on K0.5 of K-citrate (human ACCβ enzyme; listed as Soraphen A 1-α): little effect | Effect on Vmax of the ACC enzyme reaction (human ACCβ enzyme; listed as Soraphen A 1-α): reduced | Fold stimulation over palmitate oxidation rate in the absence of test compounds (HepG2 cells): 3.5 fold | Palmitate oxidation rate (HepG2 cells): 13.7 +/− 0.7 pmol · h^−1 · well^−1 | Duration of effect (entire assessment period) (Wistar rats): 6 h | Time after administration at which the effect is apparent (Wistar rats): approx. 60 min | % increase over vehicle (Wistar rats; 5 min): −15% | Accumulated 14CO2 exhaled (Wistar rats; 5 min): 133 +/− 41 cpm | % increase over vehicle (Wistar rats; 15 min): −30% | Accumulated 14CO2 exhaled (Wistar rats; 15 min): 121 +/− 36 cpm | % increase over vehicle (Wistar rats; 30 min): 17% | Accumulated 14CO2 exhaled (Wistar rats; 30 min): 211 +/− 32 cpm | % increase over vehicle (Wistar rats; 60 min): 41% | Accumulated 14CO2 exhaled (Wistar rats; 60 min): 544 +/− 102 cpm | % increase over vehicle (Wistar rats; 90 min): 40% | Accumulated 14CO2 exhaled (Wistar rats; 90 min): 1440 +/− 90 cpm | % increase over vehicle (Wistar rats; 120 min): 56% | Accumulated 14CO2 exhaled (Wistar rats; 120 min): 2614 +/− 136 cpm | % increase over vehicle (Wistar rats; 150 min): 62% | Accumulated 14CO2 exhaled (Wistar rats; 150 min): 4333 +/− 235 cpm | % increase over vehicle (Wistar rats; 180 min): 51% | Accumulated 14CO2 exhaled (Wistar rats; 180 min): 5729 +/− 397 cpm | % increase over vehicle (Wistar rats; 240 min): 56% | Accumulated 14CO2 exhaled (Wistar rats; 240 min): 9572 +/− 809 cpm | % increase over vehicle (Wistar rats; 300 min): 77% | Accumulated 14CO2 exhaled (Wistar rats; 300 min): 13261 +/− 1.445 cpm | % increase over vehicle (Wistar rats; 360 min): 60% | Accumulated 14CO2 exhaled (Wistar rats; 360 min): 16134 +/− 2.130 cpm
